From paper PMC2248166, “Quantitative peptide binding motifs for 19 human and mouse MHC class I molecules derived using positional scanning combinatorial peptide libraries” (Immunome Research, 2008)

What was measured:
HLA B*5301 = HLA B*5301 (Homo sapiens, UniProt P01889, A329T/A93T/A95T/C349S/D201E/D98Y/E176V/E187L/E204Q/E69T/G107R/I218V/K202T/L105A/L119I/N104I/Q94N/R106L/R155S/R180L/S101N/S121R/S35A/S48A/T118I/V127L/V306I/V36M/Y140S/Y91F); format: binding
HLA B*5801 = HLA B*5801 (Homo sapiens, UniProt P01889, A329T/C349S/D201E/D98Y/E176V/E187L/E204Q/E69T/G107R/I218V/I90N/K202T/L105A/L119I/N104I/N87E/Q89R/Q94S/R106L/R155S/R180L/R86G/S101N/S121R/S35A/S48A/T118I/V127L/V306I/V36M/Y140S/Y91M); format: binding
HLA B*1501 = HLA B*1501 (Homo sapiens, UniProt P01889, A329T/A93T/A95T/C349S/D201E/D98Y/E187L/E204Q/E69M/E70A/K202T/N87E/Q94N/R155S/R180W/S121R/S35A/S48A/V306I/V36M/Y140S/Y91S); experiment: biochemical; format: binding
HLA B*5101 = HLA B*5101 (Homo sapiens, UniProt P01889, A329T/A93T/A95T/C349S/D138N/D201E/D98Y/E187L/E204Q/E69T/G107R/I218V/K202T/L105A/L119W/N104I/Q94N/R106L/R155S/R180L/S101N/S121T/S35A/S48A/V306I/V36M/Y195H/Y91F); format: binding
HLA B*0702 = HLA B*0702 (Homo sapiens, UniProt P01889); format: binding; conditions: positional scanning combinatorial 9-mer library; normalized to 1.0 for the best residue at each position
HLA B*5401 = HLA B*5401 (Homo sapiens, UniProt P01889, A329T/C349S/D138N/D201E/E176V/E187T/E204Q/E69G/I76V/K202T/L119W/R155S/R180L/S121T/S35A/S48A/V127L/V306I/V36M/Y140L); format: binding
HLA A*3201 = HLA A*3201 (Homo sapiens, UniProt P04439, A270S/D101S/D185E/E176V/E277Q/F133L/G103R/G107R/G231S/H175R/I121M/I218V/I322F/K168Q/L105A/L300P/L318F/M331R/P208A/P217A/Q94H/R106L/R138Q/S129P/T104I/T323A/T345S/V100E/V321M/V358M); experiment: biochemical; format: binding
H-2 K^k = H-2 K^k (Mus musculus, UniProt P04223); format: binding
HLA A*0201 = HLA A*0201 (Homo sapiens, UniProt P04439, D140Y/D185E/D98H/E176V/E277Q/G131W/G231S/I119V/I121R/I166T/I218V/L300P/L318F/N151K/N90K/P208A/P217A/Q86G/Q94H/R138H/R169H/T345S); conditions: positional scanning combinatorial 9-mer library; normalized to 1.0 for the best residue at each position
H-2 D^d = H-2 D^d (Mus musculus, UniProt P01900); format: binding
HLA B*0801 = HLA B*0801 (Homo sapiens, UniProt P01889, A93T/A95T/D138N/E176V/E187T/K202T/Q94N/R180D/S35A/V36M/Y33D/Y91F); experiment: biochemical; format: binding
HLA A*3001 = HLA A*3001 (Homo sapiens, UniProt P04439, D140H/D185E/E176W/F33S/G80R/H175R/K168Q/R138E/R41S); experiment: biochemical; format: binding
HLA B*5802 = HLA B*5802 (Homo sapiens, UniProt P01889, A329T/C349S/D201E/D98Y/E176V/E187L/E204Q/E69T/G107R/I218V/I90N/K202T/L105A/N104I/N87E/Q89R/Q94S/R106L/R155S/R180L/R86G/S101N/S121W/S35A/S48A/V127L/V306I/V36M/Y140S/Y91M); format: binding
H-2 D^b = H-2 D^b (Mus musculus, UniProt P01899); format: binding
HLA B*2705 = HLA B*2705 (Homo sapiens, UniProt P01889, D138H/D201E/E176V/E204Q/G107R/H137Y/K202T/N104T/N87E/Q56L/Q94K/R106L/R155S/R180L/S101D/S121N/S48T/Y140D/Y33H/Y91C); format: binding; conditions: positional scanning combinatorial 9-mer library; normalized to 1.0 for the best residue at each position
HLA B*1503 = HLA B*1503 (Homo sapiens, UniProt P01889, A329T/A93T/A95T/C349S/D201E/D98Y/E187L/E204Q/K202T/N87E/Q94N/R155S/R180L/S121R/S35A/V306I/V36M/Y140S/Y91S); experiment: biochemical; format: binding
HLA A*6802 = HLA A*6802 (Homo sapiens, UniProt P04439, A269V/D140Y/D185E/E176V/E277Q/E87N/F33Y/G231S/I121R/I166T/I218V/L180W/L300P/L318F/N151K/P208A/P217A/Q86R/R138H/R169H/S129P/T345S/V36M); format: binding
HLA B*3501 = HLA B*3501 (Homo sapiens, UniProt P01889, A329T/A93T/A95T/C349S/D201E/D98Y/E176V/E187L/E204Q/E69T/I218V/K202T/L119I/Q94N/R155S/R180L/S121R/S35A/S48A/T118I/V127L/V306I/V36M/Y140S/Y91F); format: binding

Chain of H-2 K^k (P01887 21-119): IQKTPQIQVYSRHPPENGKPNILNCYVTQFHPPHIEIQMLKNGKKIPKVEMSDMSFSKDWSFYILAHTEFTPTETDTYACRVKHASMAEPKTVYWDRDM
Chain of H-2 K^k (P04223 22-369): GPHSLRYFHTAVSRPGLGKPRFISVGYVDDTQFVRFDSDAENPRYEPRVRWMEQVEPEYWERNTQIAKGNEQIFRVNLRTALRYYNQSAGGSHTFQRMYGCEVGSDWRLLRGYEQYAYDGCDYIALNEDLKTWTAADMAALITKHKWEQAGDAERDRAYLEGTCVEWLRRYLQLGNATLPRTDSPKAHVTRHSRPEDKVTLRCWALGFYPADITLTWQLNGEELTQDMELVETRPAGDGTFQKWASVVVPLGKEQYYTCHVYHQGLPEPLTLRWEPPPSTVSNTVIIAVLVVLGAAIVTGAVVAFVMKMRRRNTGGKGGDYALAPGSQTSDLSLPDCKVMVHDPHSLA
Chain of H-2 D^b (P01887 21-119): as the sequence (P01887 21-119) above
Chain of H-2 D^b (P01899 25-362): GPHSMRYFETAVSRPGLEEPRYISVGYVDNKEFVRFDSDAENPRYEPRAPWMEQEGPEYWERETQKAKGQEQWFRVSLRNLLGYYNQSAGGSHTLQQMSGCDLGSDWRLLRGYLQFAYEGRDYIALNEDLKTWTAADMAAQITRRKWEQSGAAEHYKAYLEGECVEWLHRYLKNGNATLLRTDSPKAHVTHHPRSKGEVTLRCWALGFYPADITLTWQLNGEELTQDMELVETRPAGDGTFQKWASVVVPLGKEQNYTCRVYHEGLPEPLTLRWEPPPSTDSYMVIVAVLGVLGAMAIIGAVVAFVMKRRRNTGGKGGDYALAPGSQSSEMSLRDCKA
Chain of H-2 D^d (P01900 whole entry, looked up): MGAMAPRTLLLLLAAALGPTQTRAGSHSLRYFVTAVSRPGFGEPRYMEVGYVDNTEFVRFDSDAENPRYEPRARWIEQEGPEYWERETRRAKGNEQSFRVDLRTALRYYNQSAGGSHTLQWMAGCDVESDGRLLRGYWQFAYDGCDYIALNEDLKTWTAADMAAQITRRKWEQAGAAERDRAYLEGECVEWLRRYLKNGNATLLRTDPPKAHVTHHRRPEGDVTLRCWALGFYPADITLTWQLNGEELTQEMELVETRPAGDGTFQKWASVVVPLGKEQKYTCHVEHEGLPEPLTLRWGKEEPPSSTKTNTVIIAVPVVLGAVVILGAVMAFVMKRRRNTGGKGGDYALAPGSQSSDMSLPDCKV

With XFXXXXXXX [3064.0025] the “Normalized average relative binding affinity (ARB), HLA B*5301” value (HLA B*5301) was 0.018, the “Normalized average relative binding affinity (ARB), HLA B*5801” value (HLA B*5801) was 0.097 and the “Normalized average relative binding affinity (ARB), HLA B*1501” value (HLA B*1501) was 0.099. The “Normalized average relative binding affinity (ARB), HLA B*5101” value (HLA B*5101) was 0.086, the “Normalized average relative binding affinity (ARB), HLA B*0702” value (HLA B*0702) was 0.0028 and the “Normalized average relative binding affinity (ARB), HLA B*5401” value (HLA B*5401) was 0.00055. For the same sequence, the “Normalized average relative binding affinity (ARB), HLA A*3201” value (HLA A*3201) was 0.012, the “Normalized average relative binding affinity (ARB), H-2 Kk” value (H-2 K^k) was 0.016 and the “Normalized average relative binding affinity (ARB), HLA A*0201” value (HLA A*0201) was 0.0041. The “Normalized average relative binding affinity (ARB), H-2 Dd” value (H-2 D^d) was 0.074, the “Normalized average relative binding affinity (ARB), HLA B*0801” value (HLA B*0801) was 0.14 and the “Normalized average relative binding affinity (ARB), HLA A*3001” value (HLA A*3001) was 0.30. The “Normalized average relative binding affinity (ARB), HLA B*5802” value (HLA B*5802) was 0.030, the “Normalized average relative binding affinity (ARB), H-2 Db” value (H-2 D^b) was 0.086 and the “Normalized average relative binding affinity (ARB), HLA B*2705” value (HLA B*2705) was 0.0016. The “Normalized average relative binding affinity (ARB), HLA B*1503” value (HLA B*1503) was 0.0062, the “Normalized average relative binding affinity (ARB), HLA A*6802” value (HLA A*6802) was 0.017 and the “Normalized average relative binding affinity (ARB), HLA B*3501” value (HLA B*3501) was 0.012.

In the case of XGXXXXXXX [3064.0026], the “Normalized average relative binding affinity (ARB), HLA B*5301” value (HLA B*5301) is reported as 0.022, the “Normalized average relative binding affinity (ARB), HLA B*5801” value (HLA B*5801) is reported as 0.14 and the “Normalized average relative binding affinity (ARB), HLA B*1501” value (HLA B*1501) is reported as 0.095. The “Normalized average relative binding affinity (ARB), HLA B*5101” value (HLA B*5101) was 0.16, the “Normalized average relative binding affinity (ARB), HLA B*0702” value (HLA B*0702) was 0.0028 and the “Normalized average relative binding affinity (ARB), HLA B*5401” value (HLA B*5401) was 0.011. For the same sequence, the “Normalized average relative binding affinity (ARB), HLA A*3201” value (HLA A*3201) was 0.025, the “Normalized average relative binding affinity (ARB), H-2 Kk” value (H-2 K^k) was 0.0063 and the “Normalized average relative binding affinity (ARB), HLA A*0201” value (HLA A*0201) was 0.0090. The “Normalized average relative binding affinity (ARB), H-2 Dd” value (H-2 D^d) was 1.0, the “Normalized average relative binding affinity (ARB), HLA B*0801” value (HLA B*0801) was 0.17 and the “Normalized average relative binding affinity (ARB), HLA A*3001” value (HLA A*3001) was 0.22. The “Normalized average relative binding affinity (ARB), HLA B*5802” value (HLA B*5802) was 0.077, the “Normalized average relative binding affinity (ARB), H-2 Db” value (H-2 D^b) was 0.42 and the “Normalized average relative binding affinity (ARB), HLA B*2705” value (HLA B*2705) was 0.0016. The “Normalized average relative binding affinity (ARB), HLA B*1503” value (HLA B*1503) was 0.042, the “Normalized average relative binding affinity (ARB), HLA A*6802” value (HLA A*6802) was 0.014 and the “Normalized average relative binding affinity (ARB), HLA B*3501” value (HLA B*3501) was 0.063.

For XHXXXXXXX [3064.0027], the “Normalized average relative binding affinity (ARB), HLA B*5301” value (HLA B*5301) was 0.0036, the “Normalized average relative binding affinity (ARB), HLA B*5801” value (HLA B*5801) was 0.061 and the “Normalized average relative binding affinity (ARB), HLA B*1501” value (HLA B*1501) was 0.015. The “Normalized average relative binding affinity (ARB), HLA B*5101” value (HLA B*5101) was 0.029, the “Normalized average relative binding affinity (ARB), HLA B*0702” value (HLA B*0702) was 0.0028 and the “Normalized average relative binding affinity (ARB), HLA B*5401” value (HLA B*5401) was 0.0014. The “Normalized average relative binding affinity (ARB), HLA A*3201” value (HLA A*3201) was 0.047, the “Normalized average relative binding affinity (ARB), H-2 Kk” value (H-2 K^k) was 0.0052 and the “Normalized average relative binding affinity (ARB), HLA A*0201” value (HLA A*0201) was 0.0016. For the same sequence, the “Normalized average relative binding affinity (ARB), H-2 Dd” value (H-2 D^d) was 0.061, the “Normalized average relative binding affinity (ARB), HLA B*0801” value (HLA B*0801) was 0.028 and the “Normalized average relative binding affinity (ARB), HLA A*3001” value (HLA A*3001) was 0.082. For the same sequence, the “Normalized average relative binding affinity (ARB), HLA B*5802” value (HLA B*5802) was 0.030, the “Normalized average relative binding affinity (ARB), H-2 Db” value (H-2 D^b) was 0.099 and the “Normalized average relative binding affinity (ARB), HLA B*2705” value (HLA B*2705) was 0.0065. For the same sequence, the “Normalized average relative binding affinity (ARB), HLA B*1503” value (HLA B*1503) was 0.16, the “Normalized average relative binding affinity (ARB), HLA A*6802” value (HLA A*6802) was 0.0031 and the “Normalized average relative binding affinity (ARB), HLA B*3501” value (HLA B*3501) was 0.0078.

With XIXXXXXXX [3064.0028] the “Normalized average relative binding affinity (ARB), HLA B*5301” value (HLA B*5301) was 0.11, the “Normalized average relative binding affinity (ARB), HLA B*5801” value (HLA B*5801) was 0.046 and the “Normalized average relative binding affinity (ARB), HLA B*1501” value (HLA B*1501) was 0.42. For the same sequence, the “Normalized average relative binding affinity (ARB), HLA B*5101” value (HLA B*5101) was 0.047, the “Normalized average relative binding affinity (ARB), HLA B*0702” value (HLA B*0702) was 0.033 and the “Normalized average relative binding affinity (ARB), HLA B*5401” value (HLA B*5401) was 0.0071. For the same sequence, the “Normalized average relative binding affinity (ARB), HLA A*3201” value (HLA A*3201) was 0.35, the “Normalized average relative binding affinity (ARB), H-2 Kk” value (H-2 K^k) was 0.0026 and the “Normalized average relative binding affinity (ARB), HLA A*0201” value (HLA A*0201) was 0.057. The “Normalized average relative binding affinity (ARB), H-2 Dd” value (H-2 D^d) was 0.018, the “Normalized average relative binding affinity (ARB), HLA B*0801” value (HLA B*0801) was 0.24 and the “Normalized average relative binding affinity (ARB), HLA A*3001” value (HLA A*3001) was 0.18. The “Normalized average relative binding affinity (ARB), HLA B*5802” value (HLA B*5802) was 0.11, the “Normalized average relative binding affinity (ARB), H-2 Db” value (H-2 D^b) was 0.076 and the “Normalized average relative binding affinity (ARB), HLA B*2705” value (HLA B*2705) was 0.0022. The “Normalized average relative binding affinity (ARB), HLA B*1503” value (HLA B*1503) was 0.026, the “Normalized average relative binding affinity (ARB), HLA A*6802” value (HLA A*6802) was 0.15 and the “Normalized average relative binding affinity (ARB), HLA B*3501” value (HLA B*3501) was 0.032.
